These results are taken from patent US20140100156A1 (SANOFI, priority 2012, published 2014).

Assay [1] has as its system female leptin-receptor deficient diabetic db/db mice. Description: Acute effect on blood glucose in fed female db/db mice. It is filed as in vivo. An excerpt: Female BKS.Cg-m+/+Leprdb/J (db/db) and BKS.Cg-m+/+Leprdb/+ (lean control) mice were obtained from Charles River Laboratories, Germany, at an age of 9-10 weeks. The animals were housed in groups in a specific pathogen-free barrier facility on a 12-h light/dark cycle with free access to water and rodent-standard chow. After 1 week of acclimatization, blood samples were drawn from the tail without anaesthesia and blood glucose (method: d-glucose hexokinase, hemolysate, AU640 Beckman Coulter) and HbA1c level (method: hemolysate, Cobas6000 c501, Roche Diagnostics, Germany) were determined.
Db/db mice were stratified to treatment groups (n=8), so that each group had similar baseline blood glucose and HbA1c levels.
1) Acute effect on blood glucose in fed db/db mice: initial blood samples were taken just before first administration (s.c.) of vehicle (phosphate buffer solution) or exendin-4 derivatives at doses of 3, 10, and 100 μg/kg (dissolved in phosphate puffer), respectively. The volume of administration was 5 mL/kg. The animals had access to water and chow during the experiment, food consumption was determined at all time points of blood sampling. Blood glucose levels were measured at t=0.5 h, t=1 h, t=2 h, t=4 h, t=6 h, t=8 h, and t=24 h. Blood sampling was performed by tail incision without anaesthesia.
Statistical analyses were performed with Everstat 6.0 by repeated measures two-way ANOVA and Dunnetts post-hoc analyses. Differences versus vehicle-treated db/db control mice were considered statistically significant at the p<0.05 level.
After blood sampling to determine the blood glucose baseline level, fed diabetic female db/db mice were administered 3, 10 or 100 μg/kg of SEQ ID NO: 97 or phosphate buffered solution (vehicle-treated db/db control) subcutaneously. At predefined time points, more blood samples were taken to measure blood glucose and generate the blood glucose profile over 24 h. […]

The test system is the same in assay [2]. Briefly: Subchronic effect on blood glucose and HbA1c in female db/db mice. It is filed as in vivo. An excerpt:
Female BKS.Cg-m+/+Leprdb/J (db/db) and BKS.Cg-m+/+Leprdb/+ (lean control) mice were obtained from Charles River Laboratories, Germany, at an age of 9-10 weeks. The animals were housed in groups in a specific pathogen-free barrier facility on a 12-h light/dark cycle with free access to water and rodent-standard chow. After 1 week of acclimatization, blood samples were drawn from the tail without anaesthesia and blood glucose (method: d-glucose hexokinase, hemolysate, AU640 Beckman Coulter) and HbA1c level (method: hemolysate, Cobas6000 c501, Roche Diagnostics, Germany) were determined. […]
2) Subchronic effect on blood glucose and HbA1c: all animals were treated once daily s.c. with either vehicle or exendin-4 derivatives at the abovementioned doses for 4 weeks. At the end of the study, blood samples (tail, no anaesthesia) were analyzed for glucose and HbA1c. […]
Female diabetic mice were treated for 4 weeks once daily subcutaneously with 3, 10 or 100 μg/kg SEQ ID NO: 97 or vehicle. Blood glucose and HbA1c were determined before start of treatment and at the end of the study after 4 weeks of treatment.
Female diabetic mice were treated for 4 weeks subcutaneously with 50 μg/kg SEQ ID NO: 24 or vehicle twice daily. Blood glucose and HbA1c were determined before start of treatment and at the end of the study after 4 weeks of treatment.

As to “SEQ ID NO: 97: exendin-4 derivative, K(γE-x53) in position 14 (HXQGTFTSDLSKQKDSRRAQDFIEWLKNGGPSSGAPPPS; K14 side chain γE-x53; Exendin-4-analogue)”, the “duration of decrease in blood glucose compared to db/db control mice” value in assay [1] (high dose (100 μg/kg s.c.)) is over 24 h; in assay [1] (low dose (3 μg/kg s.c.)) it was “up to 8 h”; in assay [1] (medium dose (10 μg/kg s.c.)) it was “up to 8 h”. Moreover, the “blood glucose level versus db control mice at the end of the study” value in assay [2] (3, 10 or 100 μg/kg s.c. once daily, 4 weeks (all dose groups)) is recorded as “significant lower blood glucose level”. For the same substance, the “HbA1c level versus db control mice at the end of the study” value in assay [2] (high dose (100 μg/kg s.c. once daily), 4 weeks) was “significant lower HbA1c level”.
